One test deals with cAMP. Briefly: cAMP assay (cAMP-Glo) in fibroblasts. It is filed as cell-based, human. Particulars: IPF patient-derived fibroblasts, 20 minutes, 10 μM. The protocol:
FIG. 9 contains a bar graph showing cAMP measured in IPF patient-derived fibroblasts treated for 20 minutes with DHX (10 μM)+/−SCH 39166 (3 μM). N=3 (**p<0.01 vs. 0.1% DMSO vehicle control).
N=3, IMR-90 lung fibroblasts.
cAMPAssay: IPF patient derived fibroblasts were plated in EMEM containing 10% FBS overnight. […] 20 minutes prior to cell lysis media was removed and cells were treated with “induction buffer” containing nonselective phosphodiesterase inhibitors and the indicated concentration of compound(s). Luminescence was measured on a Flexstation 3 (Molecular Devices) plate reader.

Another test deals with YAP. Briefly: Western blotting of YAP serine 127 phosphorylation. It is filed as cell-based, human. The conditions noted are these: IMR-90 cells, 10 μM, 2 hours. The protocol: IMR-90 cells cultured for 24 hours in media containing 0.1% FBS, treated 2 hours prior to fixation. N=3 (***p<0.001 vs. 0.1% DMSO vehicle control).
(§1) Western Blotting: Cells were plated in EMEM containing 10% FBS overnight. Media was exchanged with EMEM containing 0.1% FBS for 24 hours. Prior to protein isolation cells were treated with the indicated concentration of compounds for the indicated time. Total protein was isolated using RIPA buffer (pH 8.0) containing Pierce Phosphatase Inhibitor (Thermo) and Halt Protease Inhibitor Cocktail (Thermo). Lysate total protein concentration was determined using Pierce BCA Protein Assay Kit (Thermo) and samples were run on a 10% polyacrylamide gel. Blots were incubated overnight with primary antibodies: pYAP (Ser 127, Cell Signaling D9W21), YAP/TAZ (Cell Signaling D24E4), GAPDH (Cell Signaling 14C10), HSC70 (Santa Cruz sc-7298), αSMA (Abcam ab5694), and fibronectin (Santa Cruz sc-9068) diluted 1:1000 in Li-Cor Odyssey Blocking Buffer. Blots were washed with TBS-Tween before 60 minute incubation with IR-dye-conjugated secondary antibodies (Li-Cor) diluted 1:10,000. Plates were imaged via a Li-Cor OdysseyXL system with quantification performed via densitometry.

Test [1] deals with bile duct ligation (BDL)-mediated fibrosis. Briefly: Bile duct ligation model of liver fibrosis. Type of test: in vivo, mouse. Particulars: BDL mice, DHX 5 mg/kg i.p. daily Day 7 for 14 days. How it is done:
Bile Duct Ligation: BDL was performed as previously described. Briefly, 8-10 weak old female C57BL/6N underwent either BDL or sham surgery. Mice were anesthetized on Day 0 following IACUC protocol, and the bile duct was ligated using sterile 3/0 silk ligatures. Sham surgery was performed by passing a silk ligature under the bile duct. Starting on Day 7, DHX (5 mg/kg) or vehicle control was administered everyday intraperitoneally (i.p.) for 14 days. Following the final DHX treatment, mice were sacrificed and the livers harvested for analysis of fibrosis.
Histological Scoring: Five μm thick sections were cut from Paraffin embedded lung tissues, and the sections were stained either with hematoxylin and eosin (H&E) or with Masson's Trichrome stain kit (Abcam). […] The severity of interstitial and peribronchiolar lung immature and mature fibrosis was estimated on a numerical scale according to Ashcroft et al. For scoring purposes, all H&E stained slides were systematically scanned at 100× magnification and successive 100× fields were scored. […] The predominant score for each field was recorded. The mean of all scores was calculated for each case. Liver trichrome stained sections were computationally measured using Image J software. […]
Hydroxyproline: Hydroxyproline content was measured using a hydroxyproline assay kit (Biovision) according to the manufacture's instruction with slight modification. […]

In another test the test system is hepatic stellate cells. Briefly: TGFβ-mediated hepatic stellate cell activation, western blot of αSMA and fibronectin. The conditions noted are these: HSCs, TGFβ 48 hours, DHX 10 μM. Type of test: cell-based, human. The protocol: HSCs were stimulated with TGFβ for 48 hours+/−DHX (10 μM) prior to total protein isolation and western blot analysis of αSMA and Fibronectin. N=3 (***p<0.001, **p<0.01, *p<0.05 vs. Control+TGFβ).
as §1, with “densitometry. […]” for “densitometry.”

Another test deals with YAP/TAZ. Briefly: YAP/TAZ nuclear localization in IMR-90 and other fibroblasts / mesenchymal cells (immunofluorescence). Type of test: cell-based, human. The conditions noted are these: cells with lower DRD1 and DRD5 expression than IMR-90.

On to `Oc1cc2c(cc1O)[C@H]1c3ccccc3CN[C@@H]1CC2` (racemic) [Dihydrexidine], for which, in the test on cAMP, the cAMP result is listed as “elevated cAMP”. In addition, the “YAP serine 127 phosphorylation” value in the test on YAP was “promoted YAP serine 127 phosphorylation”. Further, in test [1], the “collagen deposition (hydroxyproline)” value is reported as “trend toward reduced collagen deposition” and the “histological fibrosis (trichrome)” value is given as “significantly improved histological fibrosis”. In addition, in the test on hepatic stellate cells, the “TGFβ-mediated HSC expression of SMA and FN protein (western blotting)” value is reported as “significant reversal of both”. For the same molecule, the “YAP/TAZ nuclear localization in mesenchymal cells derived from uterine fibroids” value in the test on YAP/TAZ is listed as “marginal inhibition of YAP/TAZ nuclear localization”.
